Assay in all cases: biochemical
Holding throughout (format): binding
What all share (settings): for IC50: NPN displacement titration, read-out: IC50; for Int (fluorescence emission): residual NPN fluorescence, normalized to 100 prior to ligand, screen at 2–20 μM ligand

The target in assay [1] is CquiOBP1 (Culex quinquefasciatus, UniProt Q8T6I2). How it is done:
(§1) Binding affinity (Ban et al., [2002]) was tested with a panel of 34 compounds, including attractants, a mosquito oviposition pheromone, repellents, terpenoids and other putative mosquito attractants or repellents. Unless otherwise specified, they were purchased from Sigma-Aldrich/Fluka/Acros (St. Louis, MO). Repellents: DEET (N,N-diethyl-3-methylbenzamide), PMD (p-mentan-3,8-diol) (Bedoukian Research, Inc.), picaridin (butan-2-yl 2-(2-hydroxyethyl)piperidine-1-carboxylate), IR3535 (ethyl 3-[acetyl(butyl)amino]propanoate) (gifts from Dr. Kamal Chauhan, USDA, ARS, Beltsville), (±)-citronellal, and ethyl 2-phenylacetate. Oviposition attractants: (5R,6S)-6-acetoxy-5-hexadecanolide, MOP (Bedoukian Research, Inc.), skatole, indole, 4-methylphenol, and 4-ethylphenol. Human derived compounds: nonanal, 6-methyl-5-hepten-2-one (sulcatone). Terpenoids and other putative attractants/repellents: linalool, linalool oxide, eucalyptol, camphor, fenchone, thujone, geranyl acetate, eugenol, (Z)-3-hexenyl acetate, 1-octen-3-ol, 1-octyn-3-ol, 3-octanol, 1-hexanol, methylcyclohexanol, methyl salicylate, cyclohexanone, acetophenone, benzaldehyde, 3,5-dimethoxybenzene, 1,2-dimethoxybenzene, and 2-phenylethanol.
(§2) Fluorescence spectra were recorded in a right angle configuration on a spectrofluorimeter (RF-5301, Shimadzu, Kyoto, Japan) at room temperature using a 1 cm light path fluorimeter quartz cuvette. Slit widths of 10 nm were selected for both excitation and emission. N-phenyl-1-naphthylamine (NPN, or 1-NPN) (Ban et al., [2002]) was dissolved in methanol to yield a 1 mM stock solution. The binding affinity for NPN was determined by adding aliquots of NPN into a 10 μg/ml (microgram) protein sample. NPN was excited at 337 nm and emission spectra were recorded at high speed scanning between 350 and 500 nm. All ligands used in competition experiments were dissolved in spectrophotometric grade methanol. Binding data were collected in three independent measurements. Bound ligand was evaluated from fluorescence intensity assuming that the protein was 100% active, with a stoichiometry of 1:1 (protein: ligand) at saturation. The KNPN values were estimated using Prism 5 (GraphPad Software, Inc., La Jolla, CA) by non-linear regression for a unique site of binding. The curves were linearized using Scatchard plots. Dissociation constants of the competitors were calculated according to Campanacci et al. ([2001]) from the corresponding IC50 values in the equation: Kdiss = [IC50]/1+[NPN]/KNPN, where [NPN] is the free concentration of NPN and KNPN is the dissociation constant of the complex protein/NPN.

Assay [2] deals with CquiOBP5 (Culex quinquefasciatus, UniProt C7BDZ9). How it is done: as §1, §2
The target in assay [3] is CquiOBP2 (Culex quinquefasciatus, UniProt C7BDZ6). How it is done: as §1, §2
[4] abbreviates: CquiOBP1, calculated from IC50 of NPN displacement, read-out: Kd.
The mark [5] stands for this setting: CquiOBP5, calculated from IC50 of NPN displacement, read-out: Kd.
Setting [6] is: CquiOBP2, calculated from IC50 of NPN displacement, read-out: Kd.

Read-outs that look alike come from different tables or passages of the source. Bounds are passed on as bounds.

Sequence of CquiOBP5 (C7BDZ9 entry or part of it): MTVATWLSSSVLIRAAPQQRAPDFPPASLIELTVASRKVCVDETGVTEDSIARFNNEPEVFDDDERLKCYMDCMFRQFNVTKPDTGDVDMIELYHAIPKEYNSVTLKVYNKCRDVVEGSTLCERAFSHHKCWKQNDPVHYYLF
Sequence of CquiOBP2 (C7BDZ6 entry or part of it): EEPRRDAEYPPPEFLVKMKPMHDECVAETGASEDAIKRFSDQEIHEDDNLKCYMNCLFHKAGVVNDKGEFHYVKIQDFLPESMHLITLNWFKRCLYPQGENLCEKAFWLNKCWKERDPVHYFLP
Sequence of CquiOBP1 (Q8T6I2 entry or part of it): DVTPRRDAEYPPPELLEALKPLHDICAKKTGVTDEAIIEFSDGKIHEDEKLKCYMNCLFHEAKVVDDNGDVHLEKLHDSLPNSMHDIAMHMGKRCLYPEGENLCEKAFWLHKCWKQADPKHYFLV

For the compound `CC12CCC(CC1=O)C2(C)C` (stereo not drawn) [Camphor, camphor], the IC50 in assay [1] (CquiOBP1), in assay [2] (CquiOBP5) and in assay [3] (CquiOBP2) was more than 10 µM each time. For the same compound, the values for the Kd in assay [1] (setting [4]), in assay [2] (setting [5]) and in assay [3] (setting [6]) were more than 6.3 µM, more than 7 µM and more than 2.5 µM, respectively. Also, the “Int (fluorescence emission)” value was 90 in assay [1] (CquiOBP1), 89 in assay [2] (CquiOBP5) and 85 in assay [3] (CquiOBP2).
For `CC/C=C\CCOC(C)=O` [(Z)-3-Hexenyl acetate, (Z)-3-hexenyl acetate], the IC50 in assay [1] (CquiOBP1), in assay [2] (CquiOBP5) and in assay [3] (CquiOBP2) was more than 10 µM each time. Also, the Kd (usually the constant that tells how readily two partners part at equilibrium) in assay [1] (setting [4]) was more than 6.3 µM; in assay [2] (setting [5]), more than 7 µM; in assay [3] (setting [6]), more than 2.5 µM. Also, the “Int (fluorescence emission)” value worked out at 79 in assay [1] (CquiOBP1), 83 in assay [2] (CquiOBP5) and 93 in assay [3] (CquiOBP2).
In the case of `CCCCCC(O)CC` (stereo not drawn) [3-Octanol, 3-octanol], the IC50 in assay [1] (CquiOBP1), in assay [2] (CquiOBP5) and in assay [3] (CquiOBP2) was more than 10 µM in each case. The values for the Kd in assay [1] (setting [4]), in assay [2] (setting [5]) and in assay [3] (setting [6]) were more than 6.3 µM, more than 7 µM and more than 2.5 µM, respectively. In addition, the figures for the “Int (fluorescence emission)” value in assay [1] (CquiOBP1), in assay [2] (CquiOBP5) and in assay [3] (CquiOBP2) were 87, 85 and 78, respectively.
Turning to (±)-citronellal, the half-inhibitory concentration (IC50) in assay [1] (CquiOBP1), in assay [2] (CquiOBP5) and in assay [3] (CquiOBP2) was more than 10 µM each time. The dissociation constant Kd in assay [1] (setting [4]) was more than 6.3 µM; in assay [2] (setting [5]), more than 7 µM; in assay [3] (setting [6]), more than 2.5 µM. Besides, the results for the “Int (fluorescence emission)” value in assay [1] (CquiOBP1), in assay [2] (CquiOBP5) and in assay [3] (CquiOBP2) were 65, 90 and 88, respectively.
For `CCN(CC)C(=O)c1cccc(C)c1` [DEET, N,N-diethyl-3-methylbenzamide], the IC50 in assay [1] (CquiOBP1), in assay [2] (CquiOBP5) and in assay [3] (CquiOBP2) was more than 10 µM in each case. Also, the Kd in assay [1] (setting [4]) was more than 6.3 µM; in assay [2] (setting [5]) it was more than 7 µM; in assay [3] (setting [6]), more than 2.5 µM. The “Int (fluorescence emission)” value in assay [1] (CquiOBP1) came to 82; in assay [2] (CquiOBP5), 92; in assay [3] (CquiOBP2), 96.
In the case of `c1ccc(Nc2cccc3ccccc23)cc1` [NPN, N-phenyl-1-naphthylamine], the Kd in assay [1] (direct titration of CquiOBP1 (10 μg/ml) with NPN, read-out: Kd for NPN) turned out to be 1.71 ± 0.13 µM; in assay [2] (direct titration of CquiOBP5 (10 μg/ml) with NPN, read-out: Kd for NPN), 2.3 ± 0.19 µM; in assay [3] (direct titration of CquiOBP2 (10 μg/ml) with NPN, read-out: Kd for NPN), 0.5 ± 0.02 µM.
With `COC(=O)c1ccccc1O` [Methyl salicylate, methyl salicylate], the 50% inhibitory concentration (IC50) in assay [1] (CquiOBP1), in assay [2] (CquiOBP5) and in assay [3] (CquiOBP2) was more than 10 µM throughout. The dissociation constant (Kd) was more than 6.3 µM in assay [1] (setting [4]), more than 7 µM in assay [2] (setting [5]) and more than 2.5 µM in assay [3] (setting [6]). The “Int (fluorescence emission)” value was determined as 87 in assay [1] (CquiOBP1), 89 in assay [2] (CquiOBP5) and 72 in assay [3] (CquiOBP2).
`Cc1cc(C)cc(O)c1` [3,5-Dimethylphenol]: the values for the IC50 in assay [1] (CquiOBP1), in assay [2] (CquiOBP5) and in assay [3] (CquiOBP2) were more than 10 µM, more than 10 µM and 7.4 µM, respectively. The Kd in assay [1] (setting [4]) was more than 6.3 µM; in assay [2] (setting [5]), more than 7 µM; in assay [3] (setting [6]) it was 1.9 µM. Moreover, the results for the “Int (fluorescence emission)” value in assay [1] (CquiOBP1), in assay [2] (CquiOBP5) and in assay [3] (CquiOBP2) were 84, 93 and 40, respectively.
As for `COc1ccccc1OC` [1,2-Dimethoxybenzene, 1,2-dimethoxybenzene], the IC50 in assay [1] (CquiOBP1), in assay [2] (CquiOBP5) and in assay [3] (CquiOBP2) was more than 10 µM throughout. The values for the Kd in assay [1] (setting [4]), in assay [2] (setting [5]) and in assay [3] (setting [6]) were more than 6.3 µM, more than 7 µM and more than 2.5 µM, respectively. Further, the “Int (fluorescence emission)” value in assay [1] (CquiOBP1) turned out to be 88; in assay [2] (CquiOBP5), 87; in assay [3] (CquiOBP2), 91.
